In this assay the target is human MRGPRD (Homo sapiens, UniProt Q8TDS7). As to the kind of experiment: MRGPRD antagonist activity, IP-One HTRF assay in CHO cells stably expressing human MRGPRD (versus 100 μM β-Alanine agonist). Type of assay: cell-based. On the procedure:
Chinese Hamster Ovary (CHO) cells stably expressing human MRGPRD (Eurofins, San Diego CA) were plated in a 384-well plate at 20,000 cells per well in 12 μL of Optimem (Fisher Scientific 11-058-021). Plates were kept in the incubator at 37° C. overnight. Antagonists were solubilized at a concentration of 10 mM in DMSO, and the agonists were solubilized to stock concentrations of either 50 mM in H2O (β-Alanine) or 10 mM in DMSO (all others) and then diluted in assay buffer (final concentrations of 5.7 mM Tris-HCl, 43 mM NaCl, 50 mM LiCl, pH=8). The concentration of DMSO was normalized across the plate. Antagonists were added to the plate using a Tecan D300 Digital Dispenser at nanoliter/picoliter volumes and 2 μL of agonists in assay buffer were added to each well for a final assay volume of 14 μL. Plates were covered and incubated for 1 h at 37° C. and then for 1 h at room temperature. IP-1 standards and HTRF detection reagents were added according to an IP-One—Gq Kit purchased from Cisbio (part number 621PAPEJ) and incubated in the dark for 1 h at room temperature. Assay plates were read on either a Molecular Devices SpectraMax iD5 plate reader or a BMG ClarioStar plate reader. The HTRF ratio was calculated form the raw data and graphed using GraphPad Prism to calculate IC50 values. Data are expressed as average IC50 values and average percent antagonism calculated as a percent of the maximum efficacy response. For these studies, the variability of the data was assessed by determining the standard error of mean (SEM).
The activity ranges are denoted as follows: “+++++” denotes antagonist activity<100 nM; “++++” denotes antagonist activity between 100 and 500 nM; “+++” denotes activity between 500 and 1000 nM; “++” denotes activity between 1000 and 3000 nM; and “+” denotes activity>3000 nM.
In general terms: In TR-FRET formats the signal depends on donor and acceptor labels being close together.

human MRGPRD, sequence (Q8TDS7 whole entry): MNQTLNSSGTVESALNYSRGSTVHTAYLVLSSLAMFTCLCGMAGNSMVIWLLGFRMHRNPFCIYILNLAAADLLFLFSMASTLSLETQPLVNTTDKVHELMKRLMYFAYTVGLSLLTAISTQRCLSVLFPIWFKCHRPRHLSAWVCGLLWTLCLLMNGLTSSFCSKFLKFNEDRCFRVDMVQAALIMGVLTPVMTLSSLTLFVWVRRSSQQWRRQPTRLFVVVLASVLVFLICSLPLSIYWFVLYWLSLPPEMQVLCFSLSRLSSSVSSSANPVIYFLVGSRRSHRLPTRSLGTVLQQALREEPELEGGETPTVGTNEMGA

As a reminder, the IC50 is the concentration that gives 50% inhibition. In turn, `O=C(Nc1ccncc1)c1nnn(-c2ccc(-c3ccc[nH]3)cc2)c1C1CC1` [Compound 7-77] returned an IC50 of 100 to 500 nM. In turn, `Cn1ncc(-c2ccc(-n3nnc(C(=O)Nc4ccncc4)c3C3CC3)cc2)n1` [Compound 7-78] displayed an IC50 of 100 to 500 nM.

With `O=C(Nc1ccncc1)c1nnn(-c2ccc(-c3cnsc3)cc2)c1C1CC1` [Compound 7-79], the IC50 was 100 to 500 nM.

`CC(=O)c1cccc(-c2ccc(-n3nnc(C(=O)Nc4ccncc4)c3C3CC3)cc2)c1` [Compound 7-80] came in with an IC50 of 100 to 500 nM. The same measure for `Cc1cc(NC(=O)c2nnn(-c3ccc(-c4ccc(F)cc4)cc3)c2C2CC2)ccn1` [Compound 7-81]: 100 to 500 nM. As for `Cc1cc(NC(=O)c2nnn(-c3ccc(-c4ccccc4)cc3OC(F)(F)F)c2C2CC2)ccn1` [Compound 7-82], the IC50 is 100 to 500 nM.

`CC(O)c1ccc(-c2ccc(-n3nnc(C(=O)Nc4ccncc4)c3C3CC3)cc2)cc1` (stereo not shown) [Compound 7-83] displayed an IC50 of 100 to 500 nM. In turn, `COc1ccc(-c2ccc(-n3nnc(C(=O)Nc4ccncc4)c3C3CC3)cc2)cc1C` [Compound 7-84] registered an IC50 of 100 to 500 nM.

`CC(=O)c1cccc(-c2ccc(-n3nnc(C(=O)Nc4ccncc4)c3C3CC3)cc2)c1F` [Compound 7-85] returned an IC50 of 100 to 500 nM. The same measure for `CCCn1cc(-c2ccc(-n3nnc(C(=O)Nc4ccncc4)c3C3CC3)cc2)cn1` [Compound 7-86]: 100 to 500 nM. The compound `Cc1cc(NC(=O)c2nnn(-c3ccc(-c4ccc(C#N)c(F)c4)cc3)c2C2CC2)cc(C)n1` [Compound 7-87] showed an IC50 of 100 to 500 nM. To `O=C(Nc1ccncc1)c1nnn(-c2ccc(-c3cnn(C4CC4)c3)cc2)c1C1CC1` [Compound 7-88] belongs 100 to 500 nM; to `Cc1cnc(-c2ccc(-n3nnc(C(=O)Nc4ccncc4)c3C3CC3)cc2)s1` [Compound 7-89], 100 to 500 nM. In the case of `O=C(Nc1ccncc1)c1nnn(-c2ccc(-c3ccc(Cl)cc3)cc2)c1C1CC1` [Compound 7-90], the IC50 fell in the range of 100 to 500 nM.

Turning to `CCc1cccc(-c2ccc(-n3nnc(C(=O)Nc4ccncc4)c3C3CC3)cc2)c1` [Compound 7-91], the IC50 is 100 to 500 nM.

On to `CCn1nccc1-c1ccc(-n2nnc(C(=O)Nc3ccncc3)c2C2CC2)cc1` [Compound 7-92], for which the IC50 was 100 to 500 nM. To `CS(=O)(=O)c1ccc(-c2ccc(-n3nnc(C(=O)Nc4ccncc4)c3C3CC3)cc2)cc1` [Compound 7-93] belongs 100 to 500 nM; to `O=C(Nc1ccncc1)c1nnn(-c2ccc(-c3n[nH]c4c3CCCC4)cc2)c1C1CC1` [Compound 7-94], 100 to 500 nM; to `Cc1ccc(CNC(=O)c2nnn(-c3ccc(-c4ccc(C#N)cc4C)cc3)c2C2CC2)cn1` [Compound 7-95], 100 to 500 nM. Turning to `Cc1ccccc1-c1ccc(-n2nnc(C(=O)Nc3ccncc3)c2C2CC2)cc1` [Compound 7-96], the IC50 was in the range of 100 to 500 nM.

Take `CCn1cc(-c2ccc(-n3nnc(C(=O)Nc4ccncc4)c3C3CC3)cc2)cn1` [Compound 7-97]: the IC50 was in the range of 100 to 500 nM. To `CN(C)c1ccc(-c2ccc(-n3nnc(C(=O)Nc4ccncc4)c3C3CC3)cc2)cc1` [Compound 7-98] belongs 100 to 500 nM; to `O=C(Nc1ccncc1)c1nnn(-c2ccc(-c3n[nH]c4ncccc34)cc2)c1C1CC1` [Compound 7-99], 100 to 500 nM; to `Cc1c(-c2ccc(-n3nnc(C(=O)Nc4ccncc4)c3C3CC3)cc2)c(CO)nn1C` [Compound 7-100], 100 to 500 nM. `O=C(Nc1ccncc1)c1nnn(-c2ccc(-c3cccc(Cl)c3)cc2)c1C1CC1` [Compound 7-101] registered an IC50 of 100 to 500 nM. To `Cc1n[nH]c(C)c1-c1ccc(-n2nnc(C(=O)Nc3ccncc3)c2C2CC2)cc1` [Compound 7-102] belongs 100 to 500 nM; to `O=C(Nc1ccncc1)c1nnn(-c2ccc(-c3ccn(-c4ccccc4)n3)cc2)c1C1CC1` [Compound 7-103], 100 to 500 nM; to `CC(=O)c1ccc(-c2ccc(-n3nnc(C(=O)Nc4ccncc4)c3C3CC3)cc2)cc1F` [Compound 7-104], 100 to 500 nM.

These data come from patent US20260001871A1, “TRIAZOLE DERIVATIVES AS MODULATORS OF MAS-RELATED G-PROTEIN RECEPTOR D” (ESCIENT PHARMACEUTICALS, INC., priority 2022, published 2026).
